≈ marks a conversion by molar mass, not a printed value. Like-named read-outs stand apart in the source and are kept apart here.
Legend:
[1] = tested on: Staphylococcus aureus NCTC 13373 (mecA-positive; methicillin-resistant); test: In vitro antibacterial activity, MIC (UCL School of Pharmacy assay), MRSA; format: cell-based; details: for MIC: Staphylococcus aureus
Procedure: (§1) Staphylococcus aureus NCTC 13373 (mecA-positive; methicillin-resistant, NCTC 13373) was supplied by the National Collection of Type Cultures (NCTC), Public Health England, United Kingdom. Other organisms, S. aureus ATCC 25923 (methicillin-susceptible) and Enterococcus faecalis ATCC 51299 (vanA-positive; vancomycin-resistant), were obtained from the American Type Culture Collection (ATCC) via LGC Standards, UK. A suspension of each organism was prepared from an overnight plate culture (tryptone soya agar) in phosphate-buffered saline (PBS) and adjusted to an absorbance reading at 600 nm of 0.1, which is approximately equivalent to 1 × 10^8 colony-forming units (CFU) per mL. The cultures were further diluted 1:100 in isosensitest broth (Oxoid, United Kingdom) before 100 μL was used to inoculate each well of a 96-well plate that contained diluted samples of the OSA series. Compounds were evaluated over a 2-fold dilution range from 32 to 0.03 μg/mL. Stocks of the samples were prepared in 100% DMSO at […] before being diluted in isosenstitest broth. The highest concentration of DMSO present was 2%, which has been previously shown not to inhibit the growth of the microorganisms (data not shown). […] Vancomycin was used as a quality control compound.

[2] = tested on: S. aureus ATCC 25923 (methicillin-susceptible); test: In vitro antibacterial activity, MIC (UCL), MSSA; format: cell-based, Staphylococcus aureus; details: for MIC: Staphylococcus aureus
Procedure: as §1

[3] = UCL assay, read-out: MRSA MIC (ug/mL) (UCL)
[4] = UCL assay, read-out: MSSA MIC (ug/mL) (UCL)

## Fc1ccc(Nc2c(-c3ccc[nH]3)nc3ccccn23)cc1 [OSA_001009]
[1]; UCL, read-out: MRSA MIC (UCL)
  MIC: > 32 µg/mL
[2]; read-out: MSSA MIC (UCL)
  MIC: > 32 µg/mL

## Cc1ccc(-c2c(-c3ccccn3)nc3cc(C#N)ccn23)cc1 [OSA_001013]
[1]; UCL, read-out: MRSA MIC (UCL)
  MIC: > 32 µg/mL
[2]; read-out: MSSA MIC (UCL)
  MIC: > 32 µg/mL

## N#Cc1ccc(-c2c(-c3ccccn3)nc3ncccn23)cc1 [compound 1105]
[1]
  MRSA MIC: > 32 µg/mL
[2]
  MSSA MIC: > 32 µg/mL

## CSc1cccc(-c2c(-c3ccccn3)nc3n2CCC3)c1 [compound 826]
[1]; read-out: MRSA MIC
  MIC: 4 µg/mL (≈ 13 µM)

## N#Cc1ccc(-c2nc(-c3ccccn3)c[nH]2)cc1 [compound 1102]
[1]
  MRSA MIC: > 32 µg/mL
[2]
  MSSA MIC: > 32 µg/mL

## CC(C)CN(c1ccc(F)cc1)c1c(-c2ccccn2)nc2ccc(S(C)(=O)=O)cn12 [OSA_001037]
[1]; [3]
  MIC: > 32 µg/mL
[2]; [4]
  MIC: > 32 µg/mL

## COc1cccn2c(N(C)c3ccc(F)cc3)c(-c3ccccn3)nc12 [compound 1001]
[1]; 16 h, read-out: MRSA MIC
  MIC: 16 µg/mL (≈ 45.9 µM)
[2]; 16 h, read-out: MSSA MIC
  MIC: 16 µg/mL (≈ 45.9 µM)

## CC(C)CN(c1ccc(F)cc1)c1c(-c2ccccn2)nc2ccncn12 [compound 1039]
[1]; read-out: MRSA MIC
  MIC: > 32 µg/mL
[2]; read-out: MSSA MIC
  MIC: > 32 µg/mL

## CC(C)CN(c1ccc(F)cc1)c1c(-c2ccccn2)nc2ccncn12 [OSA_001039]
[1]; [3]
  MIC: > 32 µg/mL
[2]; [4]
  MIC: > 32 µg/mL

## N#Cc1ccc(-c2c(-c3ccccn3)nc3cccnn23)cc1 [compound 1103]
[1]
  MRSA MIC: > 32 µg/mL
[2]
  MSSA MIC: > 32 µg/mL

## c1ccc(-c2nc3n(c2-c2ccc4scnc4c2)CCC3)nc1 [OSA_000835]
[1]; UCL, read-out: MRSA MIC (UCL)
  MIC: 32 µg/mL (≈ 101 µM)

## N#Cc1ccc(-c2c(-c3ncccn3)nc3ccccn23)cc1 [OSA_001107]
[1]; [3]
  MIC: > 32 µg/mL
[2]; [4]
  MIC: > 32 µg/mL

## CN1CCN(c2ccc(-c3c(-c4ccccn4)nc4ccccn34)cc2)CC1 [OSA_001012]
[1]; UCL, read-out: MRSA MIC (UCL)
  MIC: > 32 µg/mL
[2]; read-out: MSSA MIC (UCL)
  MIC: > 32 µg/mL

## N#Cc1ccc(-c2c(-c3ccccn3)nc3ccccn23)cc1 [OSA_001104]
[1]; [3]
  MIC: > 32 µg/mL
[2]; [4]
  MIC: > 32 µg/mL

## c1ccc(-c2nc3n(c2-c2ccc4c(c2)OCCO4)CCC3)nc1 [compound 819]
[1]; read-out: MRSA MIC
  MIC: 16 µg/mL (≈ 50.1 µM)

## c1ccc(-c2nc3n(c2-c2csc4ccccc24)CCC3)nc1 [OSA_000832]
[1]; UCL, read-out: MRSA MIC (UCL)
  MIC: 8 µg/mL (≈ 25.2 µM)

## Fc1ccc(Nc2c(-c3nccs3)nc3ccccn23)cc1 [OSA_001008]
[1]; UCL, read-out: MRSA MIC (UCL)
  MIC: > 32 µg/mL
[2]; read-out: MSSA MIC (UCL)
  MIC: > 32 µg/mL

## c1ccc(-c2nc3n(c2-c2ccc4c(c2)OCO4)CCCC3)nc1 [compound 818]
[1]
  MRSA MIC: 16 µg/mL

## c1ccc(-c2nc3ncccn3c2-c2ccc3c(c2)OCO3)nc1 [compound 815]
[1]
  MRSA MIC: > 32 µg/mL

## CSc1ccc(-c2c(-c3ccccn3)nc3n2CCC3)cc1 [compound 824]
[1]; read-out: MRSA MIC
  MIC: 4 µg/mL (≈ 13 µM)

## N#Cc1ccc(-c2c(-c3ccccn3)nc3ncccn23)cc1 [OSA_001105]
[1]; [3]
  MIC: > 32 µg/mL
[2]; [4]
  MIC: > 32 µg/mL

## CC(C)CN(c1ccc(F)cc1)c1c(-c2ccccn2)nc2ccc(F)cn12 [compound 1024]
[1]
  MRSA MIC: 8 µg/mL
[2]
  MSSA MIC: 8 µg/mL

## COc1ccc(-c2c(-c3ccccn3)nc3n2CCC3)cc1 [compound 823]
[1]; read-out: MRSA MIC
  MIC: 16 µg/mL (≈ 54.9 µM)

## c1ccc(-c2nc3n(c2-c2ccc4ccoc4c2)CCC3)nc1 [compound 829]
[1]; read-out: MRSA MIC
  MIC: 4 µg/mL (≈ 13.3 µM)

## c1ccc(-c2nc3n(c2-c2ccc4cccnc4c2)CCC3)nc1 [OSA_000833]
[1]; UCL, read-out: MRSA MIC (UCL)
  MIC: > 32 µg/mL

## c1ccc(-c2nc3n(c2-c2csc4ccccc24)CCC3)nc1 [compound 832]
[1]; read-out: MRSA MIC
  MIC: 8 µg/mL (≈ 25.2 µM)

## COc1cccc(-c2c(-c3ccccn3)nc3n2CCC3)c1 [compound 825]
[1]; read-out: MRSA MIC
  MIC: 16 µg/mL (≈ 54.9 µM)

## c1ccc(-c2nc3n(c2-c2ccc4scnc4c2)CCC3)nc1 [compound 835]
[1]
  activity against MRSA, in words: ineffective
[1]; read-out: MRSA MIC
  MIC: 32 µg/mL (≈ 101 µM)

## c1ccc(-c2nc3n(c2-c2ccc4sccc4c2)CCC3)cc1 [compound 834]
[1]
  MRSA MIC: > 32 µg/mL

## c1ccc(-c2nc3n(c2-c2ccc4c(c2)OCC4)CCC3)nc1 [compound 828]
[1]
  activity against MRSA, in words: ineffective
[1]; read-out: MRSA MIC
  MIC: 32 µg/mL (≈ 105 µM)

## c1ccc(-c2nc3n(c2-c2ccc4ccsc4c2)CCC3)nc1 [compound 830]
[1]; read-out: MRSA MIC
  MIC: 4 µg/mL (≈ 12.6 µM)

## Cc1nc2cc(-c3c(-c4ccccn4)nc4n3CCC4)ccc2s1 [compound 836]
[1]
  activity against MRSA, in words: ineffective
[1]; read-out: MRSA MIC
  MIC: 32 µg/mL (≈ 96.3 µM)

## c1ccc(-c2nc3n(c2-c2ccc4sccc4c2)CCC3)cc1 [OSA_000834]
[1]; UCL, read-out: MRSA MIC (UCL)
  MIC: > 32 µg/mL

## c1ccc(-c2nc3n(c2-c2ccc4sc5ccccc5c4c2)CCC3)nc1 [compound 831]
[1]; read-out: MRSA MIC
  MIC: 8 µg/mL (≈ 21.8 µM)

Reference: paper PMC10714399, “Open Source Antibiotics: Simple Diarylimidazoles Are Potent against Methicillin-Resistant Staphylococcus aureus” (ACS Infectious Diseases, 2023)
